Patent US8808706B2, “Arthrospira-based compositions and uses thereof” (Biovite Australia Pty. Ltd., priority 2004, dated 2014)

Tested on: Trichophyton mentagrophytes
Assay: Inhibitory test, filter paper disc on newly inoculated plate
Format: cell-based
Settings: FIG. 20
Experimental: Sabouraud's liquid medium was inoculated with the chosen pathogen. The broths were then incubated for one week at 28° C. […] Monographed actives not already in a cream base were mixed with a respective cream base. […] Up to four different discs were placed on a plate. The plate was then incubated for 24-48 hours at the appropriate temperature depending on the pathogen. Photos were then taken at the completion of the 24-48 hours.

Clc1ccc(COC(Cn2ccnc2)c2ccc(Cl)cc2Cl)c(Cl)c1 (stereo not shown) [miconazole] was tested, and the regrowth into clearance was “became encroached by regrowth”.
